Data published in PubChem BioAssay (NCI).
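Growth conditions: 96-well plates. Treatment: test compound, 48 hours, 5 concentrations. Analysis: linear interpolation between bracketing concentrations; unreached endpoints set to highest concentration. TGI is the concentration that stops growth completely.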

Key:
Assay in all cases: NCI-60 cell line screen, 48 h
BT-549 breast = system: BT-549 breast
NCI-H23 lung = system: NCI-H23 lung
OVCAR-8 ovarian = system: OVCAR-8 ovarian
TK-10 renal = system: TK-10 renal
MOLT-4 leukemia = system: MOLT-4 leukemia
SF-539 CNS = system: SF-539 CNS
SF-295 CNS = system: SF-295 CNS
OVCAR-5 ovarian = system: OVCAR-5 ovarian
EKVX NSCLC = system: EKVX NSCLC
MDA-N = system: MDA-N
UACC-257 melanoma = system: UACC-257 melanoma
HCC-2998 colon = system: HCC-2998 colon
OVCAR-3 ovarian = system: OVCAR-3 ovarian
SK-MEL-28 melanoma = system: SK-MEL-28 melanoma
SW-620 colon = system: SW-620 colon
SN12C renal = system: SN12C renal
HOP-62 NSCLC = system: HOP-62 NSCLC
ACHN renal = system: ACHN renal
PC-3 prostate = system: PC-3 prostate
T-47D breast = system: T-47D breast
OVCAR-4 ovarian = system: OVCAR-4 ovarian
M14 melanoma = system: M14 melanoma
CAKI-1 renal = system: CAKI-1 renal
786-0 renal = system: 786-0 renal
MDA-MB-231 breast = system: MDA-MB-231 breast
COLO 205 colon = system: COLO 205 colon
MCF7 breast = system: MCF7 breast
U251 CNS = system: U251 CNS
SK-MEL-5 melanoma = system: SK-MEL-5 melanoma
A549 NSCLC = system: A549 NSCLC
HOP-92 NSCLC = system: HOP-92 NSCLC
SK-OV-3 ovarian = system: SK-OV-3 ovarian
NCI-H226 lung = system: NCI-H226 lung
UO-31 renal = system: UO-31 renal
MDA-MB-435 = system: MDA-MB-435
SNB-75 CNS = system: SNB-75 CNS
SK-MEL-2 melanoma = system: SK-MEL-2 melanoma
SNB-19 CNS = system: SNB-19 CNS
HCT-116 colon = system: HCT-116 colon
HL-60(TB) leukemia = system: HL-60(TB) leukemia
HCT-15 colon = system: HCT-15 colon
KM12 colon = system: KM12 colon
IGROV1 ovarian = system: IGROV1 ovarian
HT29 colon = system: HT29 colon
DU-145 prostate = system: DU-145 prostate
LOX IMVI melanoma = system: LOX IMVI melanoma
NCI-H460 lung = system: NCI-H460 lung
NCI/ADR-RES ovarian = system: NCI/ADR-RES ovarian
NCI-H522 lung = system: NCI-H522 lung
RXF 393 renal = system: RXF 393 renal
CCRF-CEM leukemia = system: CCRF-CEM leukemia
A498 renal = system: A498 renal
MALME-3M melanoma = system: MALME-3M melanoma
K-562 leukemia = system: K-562 leukemia
SF-268 CNS = system: SF-268 CNS
RPMI-8226 leukemia = system: RPMI-8226 leukemia
HS 578T breast = system: HS 578T breast
UACC-62 melanoma = system: UACC-62 melanoma

Measured: TGI

Cc1cc(O)c(/C=N/C(=S)NCCc2ccccc2)c(=O)o1
not listed: NCI-H522 lung | RXF 393 renal | CCRF-CEM leukemia | A498 renal | MALME-3M melanoma | K-562 leukemia | SF-268 CNS | RPMI-8226 leukemia | HS 578T breast | UACC-62 melanoma
> 100 µM: all other assays above

CC(=O)NNc1nc(C)c(C(/C=C/c2cccc([N+](=O)[O-])c2)=N/NC(=S)NN)s1
> 100 µM: all assays above
